In patent US11083717B2, “Compositions and methods for drug sensitization of parasites” (The Texas A&M University System, priority 2015, dated 2021):
Converted amounts (≈) assume the structure as drawn. Read-outs that look alike come from different tables or passages of the source.

What was measured:
[1] = tested on: Cryptosporidium parvum (CP); assay: Cell culture model of Cryptosporidium parvum infection in HCT-8 cells, real-time qRT-PCR; type: cell-based; conditions: Cryptosporidium parvum
Method in brief: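 HCT-8 monolayers were infected with C. parvum Iowa oocysts (1.5×10^4/well) for 3 h, then compounds were added after medium exchange and cells were incubated 41 h more (44 h total, 37 °C). Parasite Cp18S rRNA was measured by one-step SYBR qRT-PCR of lysates, normalized to host Hs18S, and % inhibition at the stated µM was derived from a standard curve.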

[2] = in vitro
[3] = tested on: S. cerevisiae; assay: in vitro; conditions: Saccharomyces cerevisiae
[4] = tested on: human fibroblast; assay: in vitro; conditions: human
[5] = molecular target: Human ether-a-go-go-related gene (hERG) (Homo sapiens, UniProt Q12809); assay: hERG test (potential cardiotoxicity); type: biochemical; conditions: read-out: hERG (Abbvie)
[6] = MCLint in vitro intrinsic clearance, mouse (MLM); type: in vitro ADME
[7] = HCLint in vitro intrinsic clearance, human (HLM); type: in vitro ADME
[8] = Kinetic solubility; type: physicochemical
[9] = Plasma protein binding; type: in vitro ADME; conditions: mouse, mice, read-out: PPB (converted)
[10] = tested on: CP; assay: Calf study of CP infection; type: in vivo, calves
Experimental: New born calves are susceptible to CP infection. They can develop severe diarrhea like humans. Calves were inoculated with 5×10^7 CP oocysts/calf on day 0. Calves had diarrhea in both the groups at onset of dosing. Treatment was started on day 3. Calves were given NZ-369 @ 8.5 mg/kg every 12 hrs for 5 days. Fecal volume, urine volume, daily clinical evaluation, fecal consistency scores and weight gains were evaluated.

[11] = tested on: Eimeria; assay: Coccidiosis in broiler chicks, duodenal lesion scores; type: in vivo; conditions: 20 mg/bird daily by oral gavage, FIG. 7
Experimental: To determine the effects of NZ-366 and NZ-369 on coccidiosis in broiler chicks, experimental animals were divided into 4 treatment groups: Unmedicated (UNM), those receiving the experimental compounds (366 and 369); and those receiving Salinomycin (SAL).
Compounds NZ-366 and NZ-369 were administered at a dose of 20 mg/bird by oral gavage daily beginning from 11 days post-hatching. Salinomycin was administered in-feed beginning from 10 days post-hatching. Broilers were administered a 1000× dose of coccidiosis vaccine by oral gavage at 13 days post-hatching.
Lesion scores in the duodenum were lower in broiler chicks administered NZ-369 as compared to unmedicated broilers and those administered NZ-366. […] In FIG. 7, lesion scores expressed as the mean±SEM from 24 broilers per treatment.

Chain of Human ether-a-go-go-related gene (hERG) (Q12809 whole entry): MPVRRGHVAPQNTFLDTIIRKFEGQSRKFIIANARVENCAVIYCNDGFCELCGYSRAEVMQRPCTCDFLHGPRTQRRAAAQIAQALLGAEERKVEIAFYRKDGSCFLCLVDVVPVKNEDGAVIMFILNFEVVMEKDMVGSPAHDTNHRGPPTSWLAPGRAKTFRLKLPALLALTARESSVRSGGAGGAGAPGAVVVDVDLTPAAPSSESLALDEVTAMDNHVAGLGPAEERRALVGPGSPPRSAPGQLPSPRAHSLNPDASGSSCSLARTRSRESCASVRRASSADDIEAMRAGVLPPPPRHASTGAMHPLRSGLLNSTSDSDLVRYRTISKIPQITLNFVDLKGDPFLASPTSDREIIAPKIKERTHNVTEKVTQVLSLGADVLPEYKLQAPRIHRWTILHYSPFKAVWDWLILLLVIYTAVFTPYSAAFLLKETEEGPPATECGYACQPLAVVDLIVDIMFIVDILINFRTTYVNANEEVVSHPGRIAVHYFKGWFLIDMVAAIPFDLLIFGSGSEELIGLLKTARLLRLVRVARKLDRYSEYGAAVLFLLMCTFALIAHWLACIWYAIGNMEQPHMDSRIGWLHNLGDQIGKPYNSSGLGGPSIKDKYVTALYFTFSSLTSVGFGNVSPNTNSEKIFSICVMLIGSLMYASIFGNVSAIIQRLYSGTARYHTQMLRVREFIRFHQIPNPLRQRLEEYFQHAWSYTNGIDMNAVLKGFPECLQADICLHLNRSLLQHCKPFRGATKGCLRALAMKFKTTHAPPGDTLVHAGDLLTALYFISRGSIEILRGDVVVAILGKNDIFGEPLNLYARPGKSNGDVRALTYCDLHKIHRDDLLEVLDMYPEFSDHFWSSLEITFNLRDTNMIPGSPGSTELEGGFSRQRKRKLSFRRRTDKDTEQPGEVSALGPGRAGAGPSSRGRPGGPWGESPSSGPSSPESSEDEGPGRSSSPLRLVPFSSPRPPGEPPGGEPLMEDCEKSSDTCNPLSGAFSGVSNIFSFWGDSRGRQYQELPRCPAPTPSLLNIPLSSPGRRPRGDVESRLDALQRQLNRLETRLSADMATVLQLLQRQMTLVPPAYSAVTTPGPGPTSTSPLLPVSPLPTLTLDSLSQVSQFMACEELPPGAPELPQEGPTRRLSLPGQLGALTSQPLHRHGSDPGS

## CNC(=O)C(C)c1ccc(Oc2nc3ccc(Cl)cc3s2)cc1 (stereo not drawn) [NZ-369, 2-{4-[(6-chloro-1,3-benzothiazol-2-yl)oxy]phenyl}-N-methylpropanamide]
[1]; 44 h, CP in HCT-8 cells, 44 h infection, 50% reduction of parasite growth vs control, NA: not active, read-out: MIC50
  MIC50: 50 to 80 nM (≈ 0.0173 to 0.0277 µg/mL)
[1]; read-out: MIC50 (nM) (CP)
  MIC50: 80 nM (≈ 0.0277 µg/mL)
[2]; Saccharomyces cerevisiae
  IC50: > 100 µM
[2]; human
  IC50: > 100 µM
[3]
  concentrations at which not toxic, S. cerevisiae cytotoxicity testing: ≥ 100 µM
[4]
  concentrations at which not toxic, human fibroblast cytotoxicity testing: ≥ 100 µM
[5]
  IC50: > 30 µM
[6]
  MCLint (mL/min/g liver), MLM: MLM = 3.3 mL/min/g liver
[7]
  HCLint (mL/min/g liver), HLM: HLM = 0.69 mL/min/g liver
[8]
  Kinetic Sol.: 86 µM
[9]
  fraction unbound: 0.015
[10]; 8.5 mg/kg every 12 hrs for 5 days from day 3, through day 8 post infection, FIG. 2
  fecal volume vs control: marked reduction in fecal volume
[10]; 8.5 mg/kg every 12 hrs for 5 days, FIG. 4
  clinical evaluation scores: higher clinical evaluation scores and greater improvement post-infection
[10]; 8.5 mg/kg every 12 hrs for 5 days, FIG. 6
  weight over the trial period vs control calf: maintained their weight
[10]; 8.5 mg/kg every 12 hrs for 5 days, days 4-7 post infection, FIG. 5
  fecal consistency score vs control calves: lower fecal consistency score
[10]; 8.5 mg/kg every 12 hrs for 5 days, except on day 4 post-infection, FIG. 3
  urine output vs control calves: Greater urine output
[11]
  lesion scores in the duodenum vs unmedicated broilers and NZ-366: lower
[11]; Salinomycin in-feed
  reduction of duodenal lesion scores compared with Salinomycin: comparable to broiler chicks administered Salinomycin
